Test system: HEK293 cells overexpressing C99-YFP
Test: Western blotting of HEK293 cells overexpressing C99-YFP
Format: cell-based
Conditions: 1 μM, 37° C., 24 h
Description: (A) Adherent CG and NG cells (20,000 cells/well) were treated with 1 μM of the indicated ErbB1/2-selective tyrosine kinase inhibitors in the presence of 1 μg/ml tetracycline at 37° C. for 24 h. The luminescence signals emitted by cells treated with vehicle alone (Ctrl, 0.1% DMSO) were referred to as 100% relative luminescence signals. The luminescence signals generated by γ-secretase-mediated proteolysis of C99 (CG) or NΔE (NG) were determined using the Steady-Glo luciferase assay reagent. (B) HEK293 overexpressing C99-YFP cells were treated with 1 μM of the indicated ErbB1/2 tyrosine kinase inhibitors at 37° C. for 24 h. Clarified lysates were analyzed by Western blotting and quantified by Image J. (C) HEK293 overexpressing ErbB1 ErbB2, CFP-tagged C99, and YFP-tagged NΔE cells were infected with gene-targeting shRNA-encoding lentivirus (shErbB1 or shErbB2) at 37° C. for 48 h. Clarified lysates containing equivalent amounts of proteins were examined by Western blotting and quantified by Image J. (D) CG and NG cells were infected with gene-targeting shRNA-encoding lentivirus at 37° C. for 48 h. Following induction with 1 μg/ml tetracycline for 24 h. Cells infected with empty lentivirus (w/o) or LacZ-targeting shRNA lentivirus (shCtrl_a and shCtrl_b) were included as controls. Data are shown as the mean±SD from three independent experiments, and were analyzed by Student's t-tests. * p<0.05.
Clarified lysates containing equivalent amounts of proteins were analyzed by Western blotting. (B, C) HEK293 overexpressing CFP-LC3 cells were infected with lentivirus encoding shRNA targeting LacZ ErbB2, or ErbB2 plus ATG5 for 48 h. The autophagy induction was analyzed by fluorescence confocal microscopy. The number of CFP-LC3 puncta per cell was quantified. The levels of LC3-I, LC3-II, and GAPDH were analyzed by Western blotting. (D, E) HEK293 cells overexpressing ErbB1, ErbB2, CFP-tagged C99, and YFP-tagged NΔE were infected with lentivirus encoding shRNA targeting LacZ (Ctrl), ErbB1, or ErbB2 for 48 h. Infection mixtures were replaced with 2 ml of fresh culture medium, and infected cells were then incubated at 37° C. for an additional 24 h. The levels of LC3-1, LC3-II, and p62 were analyzed by Western blotting and quantified by NIH Image J. Conditional media were harvested and processed for determination of secreted Aβ40 using a colourimetric Aβ40-specific ELISA kit. (F, G) HEK293 cells overexpressing C99-YFP were treated with vehicle (DMSO) or 1 μM CL-387,785 at 37° C. for 24 h and analyzed by Western blotting. Conditional media were harvested for determination of secreted Aβ40. The quantitative data are shown as mean±SD from three independent experiments, and were analyzed by Student's t-tests. * p<0.05.
Preparation of cell extracts. To prepare total cell-free extracts, we harvested cells in 6-well microplates with ice-cold PBS containing 20 mM EDTA, and then pelleted the cells by centrifugation. PBS-washed cells were resuspended in a lysis buffer containing 1% Triton X-100, 50 mM Tris-HCl pH 7.5, 150 mM NaCl, 25 mM β-glycerophosphate, 1 mM Na3VO4, and protease inhibitor cocktail set V (Merck). Following the removal of cell debris by centrifugation, clarified lysates were processed for immunoprecipitation, Western blotting, or quantification of BCA protein content.
Western blotting analysis. Protein concentration was measured with the BCA Protein Assay Kit (Pierce). […]

CC#CC(=O)Nc1ccc2ncnc(Nc3cccc(Br)c3)c2c1 [CL-387,785, N-[4-[(3-bromophenyl)amino]-6-quinazolinyl]-2-butynamide] was tested, and the LC3-II/LC3-I ratio was “concurrent increase”, the “level of AICD” value was “concomitantly decreased” and the “level of C99” value was “concomitantly decreased”. The “level of ErbB2” value was “concomitantly decreased” and the “level of p62” value was “significant reduction”.

Reference: patent publication US10576082B2, “ErbB2 regulates autophagic flux to modulate the proteostasis of APP-CTFs in alzheimer's disease” (Academia Sinica, priority 2016, dated 2020)
